Like-named read-outs stand apart in the source and are kept apart here.
How the values were obtained:
[1] = target: T1, GHS-R1a receptor (HEK293 cells expressing GHS-R1a receptor) (Homo sapiens, UniProt Q92847); test: Fluorescence functional assay (ghrelin receptor), Method B2, agonist and antagonist mode; format: cell-based; conditions: functional activity as an antagonist at the ghrelin receptor, Methods B2 and B3
T1 construct: host or cells: HEK293
Outline: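 Calcium flux read by ImageTrak epifluorescence in HEK293 cells stably expressing GHS-R1a, loaded 1 h at 37 °C with Calcium-3 dye; buffer HBSS/20 mM Hepes, pH 7.4, with probenecid and BSA. Agonists injected after 10 s baseline, read 50 s more; antagonists 3 min. Sigmoidal fits gave EC50 or IC50.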

[2] = target: T2, ghrelin receptor (HEK-GHSR1 stable cells) (Homo sapiens, UniProt Q92847); test: Ghrelin receptor inverse agonist assay (HTRF IP-one), Method B4; format: cell-based
T2 construct: expressed in transfected cells
Outline: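 HEK cells stably expressing GHSR1, seeded at 100 000 cells/well overnight, exposed to compound for 30 min at 37° C. Cells then lysed and IP1 accumulation measured by HTRF (d2 plus anti-IP1 cryptate, 1 h at room temp). Wells lacking d2 served as negative control.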

[3] = Metabolic stability in human liver microsomes, Method B8; format: in vitro ADME; conditions: human liver microsomes 0.8 mg/mL, 5 μM compound, 37° C.
Outline: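 Pooled human liver microsomes (15 mixed-sex donors) at 0.8 mg/mL in 100 mM potassium phosphate, pH 7.4, with 1.5 mM NADPH and 8 mM MgCl2. Compounds tested in duplicate at a single 5 μM (0.05% DMSO), incubated at 37° C.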

[4] = inverse agonist at the ghrelin receptor, Method B4

T2 sequence (Q92847 whole entry): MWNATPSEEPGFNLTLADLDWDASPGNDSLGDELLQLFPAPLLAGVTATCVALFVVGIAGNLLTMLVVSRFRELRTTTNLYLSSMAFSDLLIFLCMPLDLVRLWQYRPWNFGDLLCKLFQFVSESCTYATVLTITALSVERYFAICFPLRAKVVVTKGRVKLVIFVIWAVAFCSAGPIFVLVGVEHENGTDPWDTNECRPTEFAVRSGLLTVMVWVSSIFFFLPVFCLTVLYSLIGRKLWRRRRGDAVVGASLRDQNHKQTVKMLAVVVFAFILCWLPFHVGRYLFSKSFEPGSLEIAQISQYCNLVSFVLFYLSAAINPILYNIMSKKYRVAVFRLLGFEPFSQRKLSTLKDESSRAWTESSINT
T1 sequence (Q92847 whole entry): as above

SMILES	Antagonist Activity [1]	IC50 [2]	HLM, metabolic stability in human liver microsomes [3]	IC50 [2, 4]
Cc1cccc(C[C@H]2NC(=O)[C@H](C(C)O)N(C)C(=O)[C@H](C(C)C)NCCOc3ccccc3C[C@H](O)CNC2=O)c1 (stereo partly shown) [Compound 1453]	B (B = 1-10 nM)	10 to 50 nM		
CC(C)[C@@H]1NCCOc2ccccc2C[C@H](O)[C@@H](C)NC(=O)[C@@H](Cc2cccc(F)c2)NC(=O)[C@H](C(C)O)N(C)C1=O (stereo partly shown) [Compound 1503]	B (B = 1-10 nM)	10 to 50 nM	20.9 μL/min/mg protein	
CC[C@@H]1CCc2ccc(F)cc2OCCN[C@@H](C(C)C)C(=O)N(C)[C@@H](C(C)O)C(=O)N[C@H](Cc2c[nH]c3ccccc23)C(=O)N1 (stereo partly shown) [Compound 1505]	B (B = 1-10 nM)	100 to 500 nM	51.5 μL/min/mg protein	
CC(C)[C@@H]1NCCOc2ccccc2C#C[C@@H](C)NC(=O)[C@@H](Cc2ccccc2)NC(=O)[C@H](C(C)O)N(C)C1=O (stereo partly shown) [Compound 1688]	A (A <1 nM)	50 to 100 nM	41.4 μL/min/mg protein	
CC(C)C1NCCOc2ccccc2C#CCNC(=O)C(Cc2c[nH]c3ccccc23)NC(=O)C(C(C)O)N(C)C1=O (stereo not shown) [Compound 1692]	C (C = 10-100 nM)		121 μL/min/mg protein	100 to 500 nM
CC(C)C1NCCOc2cc(F)ccc2C#CCNC(=O)C(Cc2c[nH]c3ccccc23)NC(=O)C(C(C)O)N(C)C1=O (stereo not shown) [Compound 1693]	C (C = 10-100 nM)		83.8 μL/min/mg protein	100 to 500 nM
CCC1CCc2ccc(F)cc2OCCNC(C2(C)CC2)C(=O)N(C)C(C(C)O)C(=O)NC(Cc2c[nH]c3ccccc23)C(=O)N1 (stereo not shown) [Compound 1703]	B (B = 1-10 nM)		44.8 μL/min/mg protein	50 to 100 nM
CC[C@@H]1C#Cc2ccc(F)cc2O[C@H](C)CN[C@@H](C2(C)CC2)C(=O)N(C)[C@@H](C(C)O)C(=O)N[C@H](Cc2c[nH]c3ccccc23)C(=O)N1 (stereo partly shown) [Compound 1707]	B (B = 1-10 nM)		27.3 μL/min/mg protein	100 to 500 nM
CC(C)[C@@H]1NCCOc2ccccc2C#CCNC(=O)[C@@H](Cc2ccccc2)NC(=O)[C@H](C(C)O)N(C)C1=O (stereo partly shown) [Compound 1712]		50 to 100 nM	58.2 μL/min/mg protein	
CC(O)[C@H]1C(=O)N[C@H](Cc2c[nH]c3ccccc23)C(=O)N[C@H](C)C#Cc2ccccc2OCCN[C@@H](C2(C)CC2)C(=O)N1C (stereo partly shown) [Compound 1713]	B (B = 1-10 nM)		48.8 μL/min/mg protein	50 to 100 nM
CC[C@@H]1C#Cc2ccccc2O[C@H](C)CN[C@@H](C2(C)CC2)C(=O)N(C)[C@@H](C(C)O)C(=O)N[C@H](Cc2c[nH]c3ccccc23)C(=O)N1 (stereo partly shown) [Compound 1718]	B (B = 1-10 nM)		43.6 μL/min/mg protein	50 to 100 nM
CC(O)[C@H]1C(=O)N[C@H](Cc2c[nH]c3ccccc23)C(=O)N[C@H](C)CCc2ccc(F)cc2O[C@H](C)CN[C@@H](C2(C)CC2)C(=O)N1C (stereo partly shown) [Compound 1719]	C (C = 10-100 nM)		23.4 μL/min/mg protein	100 to 500 nM
CC(O)[C@H]1C(=O)N[C@H](Cc2c[nH]c3ccccc23)C(=O)N[C@H](C)C#Cc2ccc(F)cc2O[C@H](C)CN[C@@H](C2(C)CC2)C(=O)N1C (stereo partly shown) [Compound 1720]	B (B = 1-10 nM)		23.2 μL/min/mg protein	100 to 500 nM
CC[C@@H]1C#Cc2c(F)cccc2OCCN[C@@H](C(C)C)C(=O)N(C)[C@@H](C(C)O)C(=O)N[C@H](Cc2c[nH]c3ccccc23)C(=O)N1 (stereo partly shown) [Compound 1726]	B (B = 1-10 nM)		41.5 μL/min/mg protein	50 to 100 nM
CC[C@@H]1CCc2ccc(F)cc2OCCN[C@@H](C2(C)CC2)C(=O)N(C)[C@@H](C(C)O)C(=O)N[C@H](Cc2ccccc2)C(=O)N1 (stereo partly shown) [Compound 1746]	B (B = 1-10 nM)		38.6 μL/min/mg protein	50 to 100 nM
CC[C@@H]1CCc2ccc(F)cc2OCCN[C@@H](C(C)C)C(=O)N(C)[C@@H](C(C)O)C(=O)N[C@H](Cc2ccc(O)cc2)C(=O)N1 (stereo partly shown) [Compound 1751]	B (B = 1-10 nM)		109.6 μL/min/mg protein	100 to 500 nM
CC[C@@H]1C#Cc2ccccc2OCCN[C@@H](C(C)C)C(=O)N(C)[C@@H](C(C)O)C(=O)N[C@H](Cc2c[nH]c3ccccc23)C(=O)N1 (stereo partly shown) [Compound 1754]	B (B = 1-10 nM)		43.7 μL/min/mg protein	50 to 100 nM
CC[C@@H]1C#Cc2ccc(F)cc2OCCN[C@@H](C(C)C)C(=O)N(C)[C@@H](C(C)O)C(=O)N[C@H](Cc2c[nH]c3ccccc23)C(=O)N1 (stereo partly shown) [Compound 1755]	B (B = 1-10 nM)		47.8 μL/min/mg protein	50 to 100 nM
CC(C)[C@@H]1NCC2CCc3cccc(c3O2)CCCNC(=O)[C@@H](Cc2ccccc2)NC(=O)[C@H](C(C)O)N(C)C1=O (stereo partly shown) [Compound 1777]	B (B = 1-10 nM)		39.6 μL/min/mg protein	50 to 100 nM
CC(O)[C@H]1C(=O)N[C@H](Cc2ccccc2)C(=O)NCCCc2cccc3c2OC(CC3)CN[C@@H](C2CC2)C(=O)N1C (stereo partly shown) [Compound 1778]	B (B = 1-10 nM)	100 to 500 nM	58.1 μL/min/mg protein	
CC[C@@H]1NCC2CCc3cccc(c3O2)CCCNC(=O)[C@@H](Cc2ccccc2)NC(=O)[C@H](C(C)O)N(C)C1=O (stereo partly shown) [Compound 1780]	B (B = 1-10 nM)	50 to 100 nM	25.3 μL/min/mg protein	
CC(C)[C@@H]1NCCOc2ccccc2C2CCC(C2)NC(=O)[C@@H](Cc2c[nH]c3ccccc23)NC(=O)[C@H](C(C)O)N(C)C1=O (stereo partly shown) [Compound 1843]	A (A <1 nM)		33.7 μL/min/mg protein	10 to 50 nM
CC(C)[C@@H]1NCCOc2ccccc2C2CCC(C2)NC(=O)[C@@H](Cc2ccccc2)NC(=O)[C@H](C(C)O)N(C)C1=O (stereo partly shown) [Compound 1848]	A (A <1 nM)		60.7 μL/min/mg protein	
CC(O)[C@H]1C(=O)N[C@H](Cc2ccccc2)C(=O)NCC#Cc2c(F)cccc2OCCN[C@@H](C2(C)CC2)C(=O)N1C (stereo partly shown) [Compound 1876]	A (A <1 nM)	50 to 100 nM	30.9 μL/min/mg protein	
CC(O)[C@H]1C(=O)N[C@H](Cc2ccccc2)C(=O)NCC#Cc2ccccc2OCCN[C@@H](C2(C)CC2)C(=O)N1C (stereo partly shown) [Compound 1878]	A (A <1 nM)	10 to 50 nM	34.7 μL/min/mg protein	
CC(C)[C@@H]1NCCOc2ccccc2C2CCC(C2)NC(=O)[C@@H](Cc2ccc(F)cc2)NC(=O)[C@H](C(C)O)N(C)C1=O (stereo partly shown) [Compound 1903]	A (A <1 nM)		47.9 μL/min/mg protein	
CC(O)[C@H]1C(=O)N[C@H](Cc2ccccc2)C(=O)NCC#Cc2ccc(F)cc2OCCN[C@@H](C2(C)CC2)C(=O)N1C (stereo partly shown) [Compound 1918]	B (B = 1-10 nM)	50 to 100 nM	14.3 μL/min/mg protein	
CC(C)[C@@H]1NCCOc2cccc(F)c2C#CCNC(=O)[C@@H](Cc2ccccc2)NC(=O)[C@H](C(C)O)N(C)C1=O (stereo partly shown) [Compound 1929]	B (B = 1-10 nM)	50 to 100 nM		
